Tests used:
Type in all cases: cell-based, human
BLEC Jurkat clones = assay: Specificity of activated BLEC Jurkat clones, relative beta-lactamase activity; conditions: PMA 8 nM, Thaps 1 microM, CsA 100 nM, PHA 10 microgram/ml
Source text: (§1) Isolated clones from PHA-induced (Example 6) and PHA-repressed (Example 7) procedures described above were characterized to determine the specificity of their modulation and time required for induction or repression. Clones were stimulated with multiple activators or inhibitors over a one to twenty-four hour time interval.
(§2) In this study, PMA, which is a PKC activator, Thapsigargin which increases intracellular calcium, PHA which activates the T-cell receptor pathway, and cyclosporin A which is a clinically approved immunosuppressant that inhibits the Ca^2+ dependent phosphates calcineurin were investigated for their ability to modulate beta-lactamase expression in PHA induced and repressed BLEC clones.

[1] = tested on: clone C2 (3×NFAT response element linked to beta-lactamase, M1 muscurinic receptor); assay: Relative beta-lactamase activity of control clone C2; conditions: PMA 8 nM, Thaps 1 microM, CsA 100 nM, PHA 10 microgram/ml
Source text: as §1, §2

[2] = tested on: induced BLEC Jurkat clones; assay: Characterization of induced BLEC Jurkat clones, change in 460/530 ratio; conditions: PHA 10 microgram/ml, Thaps 1 microM, PMA 8 nM, Anti-CD3 2 microgram/ml
Source text: These clones represent cells in which the trapping construct had integrated into a gene up regulated by PHA (T-cell) activation. Thus, these cells report the transcriptional activation of a gene upon cellular activation. Individual clones were identified and isolated by FACS using CCF2/AM to detect beta-lactamase activity. This clone isolation method, the induced sorting paradigm, used three sequential and independent stimulation and sorting protocols. […] These control cells were all green.
These isolated clones were expanded and tested for PHA inducibility by microscopic inspection with and without PHA stimulation in the presence of CCF2/AM. A total of fifty-five PHA inducible clones were identified using this procedure. The PHA inducibility for these clones ranged from a 1.5 to 40 fold change in the 460/530 ratio as compared to unstimulated control cells. Genomic Southern analysis using a DNA probe encoding beta-lactamase established that these clones represented 34 independent stable vector integration events. A list of clones obtained by the methods of the present invention and their characteristics is provided below in Table 6 and Table 7.
In addition to PHA inducible clones, Phobol 12-myristate 13-acetate (PMA) (Calbiochem), Thapsigargin (Thaps) (Calbiochem), and PMA+Thaps inducible clones were isolated using the general procedure set forth above using the indicated inducer rather than PHA. PMA is a specific activator of PKC (protein kinase C) and Thaps is a specific activator of intracellular calcium ion release (Thaps). These clones were isolated using three rounds of FACS using the general procedures described for the PHA inducible clones in Example 5. In such instances, other stimulants were substituted for PHA. PMA was provided at 8 nM, Thaps was provided at 1 microM. When these two stimulants were combined, their concentration was not changed. […] By using varied selection conditions, it is possible to isolate functionally distinct clones downstream of the desired signaling target.
Table 7 and Table 8 provide data similar to that provided in Table 5 for all of the clones obtained by the methods of Examples 5 to 7.

CCCCCCCCCCCCCC(=O)O[C@@H]1[C@@H](C)[C@@]2(O)[C@@H](C=C(CO)C[C@]3(O)C(=O)C(C)=C[C@@H]23)[C@@H]2C(C)(C)[C@]12OC(C)=O [PMA, Phobol 12-myristate 13-acetate]
Relative Beta-Lactamase Activity of the Clone by the Indicated Stimulus After 24 hours (% of maximum activated stimuli) (BLEC Jurkat clones; clone J32-6D4): 60%
Relative Beta-Lactamase Activity of the Clone by the Indicated Stimulus After 24 hours (% of maximum activated stimuli) (BLEC Jurkat clones; clone J83 97-PPTR2 (repressed paradigm)): 100%
Relative Beta-Lactamase Activity of the Clone by the Indicated Stimulus After 24 hours (% of maximum activated stimuli) (BLEC Jurkat clones; clone J83-PI9): <1%
Relative Beta-Lactamase Activity of the Clone by the Indicated Stimulus After 24 hours (% of maximum activated stimuli) (BLEC Jurkat clones; clone J83-PTI8): 80%
Relative Beta-Lactamase Activity of the Clone by the Indicated Stimulus After 24 hours (% of maximum activated stimuli) (BLEC Jurkat clones; clone J389-PTI4): 90%
Relative Beta-Lactamase Activity of the Clone by the Indicated Stimulus After 24 hours (% of maximum activated stimuli) [1]: <1%
Change in 460/530 ratio in the indicated clone by the following activator ([2]; clone J83PI1): 3-4
Change in 460/530 ratio in the indicated clone by the following activator ([2]; clone J83PI2): 7-8
Change in 460/530 ratio in the indicated clone by the following activator ([2]; clone J83PI3): 3-4
Change in 460/530 ratio in the indicated clone by the following activator ([2]; clone J83PI4): 0
Change in 460/530 ratio in the indicated clone by the following activator ([2]; clone J83PI6): 0
Change in 460/530 ratio in the indicated clone by the following activator ([2]; clone J83PI7): 2
Change in 460/530 ratio in the indicated clone by the following activator ([2]; clone J83PI8): 4-5
Change in 460/530 ratio in the indicated clone by the following activator ([2]; clone J83PI9): 0
Change in 460/530 ratio in the indicated clone by the following activator ([2]; clone J83PI13): 0
Change in 460/530 ratio in the indicated clone by the following activator ([2]; clone J83PI14): 2
Change in 460/530 ratio in the indicated clone by the following activator ([2]; clone J83PI15): 3
Change in 460/530 ratio in the indicated clone by the following activator ([2]; clone J83PI16): 3-4
Change in 460/530 ratio in the indicated clone by the following activator ([2]; clone J83PI18): 5
Change in 460/530 ratio in the indicated clone by the following activator ([2]; clone J83PI19): 3
Change in 460/530 ratio in the indicated clone by the following activator ([2]; clone J97PI1): 3-4
Change in 460/530 ratio in the indicated clone by the following activator ([2]; clone J97PI3): 1-2
Change in 460/530 ratio in the indicated clone by the following activator ([2]; clone J97PI4): 1-2
Change in 460/530 ratio in the indicated clone by the following activator ([2]; clone J97PI5): 1.5
Change in 460/530 ratio in the indicated clone by the following activator ([2]; clone J97PI6): 1-2
Change in 460/530 ratio in the indicated clone by the following activator ([2]; clone J97PI7): 1-2
Change in 460/530 ratio in the indicated clone by the following activator ([2]; clone J97PI8): 1-2
Change in 460/530 ratio in the indicated clone by the following activator ([2]; clone J97PI9): 1-2
Change in 460/530 ratio in the indicated clone by the following activator ([2]; clone J97PI10): 1-2
Change in 460/530 ratio in the indicated clone by the following activator ([2]; clone J97PI11): 2
Change in 460/530 ratio in the indicated clone by the following activator ([2]; clone J97PI12): 2-3
Change in 460/530 ratio in the indicated clone by the following activator ([2]; clone J97PI13): 1-2
Change in 460/530 ratio in the indicated clone by the following activator ([2]; clone J97PI14): 2
Change in 460/530 ratio in the indicated clone by the following activator ([2]; clone J97PI15): 1-2
Change in 460/530 ratio in the indicated clone by the following activator ([2]; clone J97PI17): 1-2
Change in 460/530 ratio in the indicated clone by the following activator ([2]; clone J97PI18): 1-2
Change in 460/530 ratio in the indicated clone by the following activator ([2]; clone J97PI19): 1-2
Change in 460/530 ratio in the indicated clone by the following activator ([2]; clone J97PI20): 1-2
Change in 460/530 ratio in the indicated clone by the following activator ([2]; clone J97PI21): 1-2
Change in 460/530 ratio in the indicated clone by the following activator ([2]; clone J97PI22): 2-3
Change in 460/530 ratio in the indicated clone by the following activator ([2]; clone J97PI23): 1-2
Change in 460/530 ratio in the indicated clone by the following activator ([2]; clone J97PI24): 2-3
Change in 460/530 ratio in the indicated clone by the following activator ([2]; clone J97PI116): 2-3
Change in 460/530 ratio in the indicated clone by the following activator ([2]; clone J325B5): 2-3
Change in 460/530 ratio in the indicated clone by the following activator ([2]; clone J325B11): 2-3
Change in 460/530 ratio in the indicated clone by the following activator ([2]; clone J325E1): 8
Change in 460/530 ratio in the indicated clone by the following activator ([2]; clone J325E3): 2-3
Change in 460/530 ratio in the indicated clone by the following activator ([2]; clone J325E6): 3-4
Change in 460/530 ratio in the indicated clone by the following activator ([2]; clone J325G4): 3-4
Change in 460/530 ratio in the indicated clone by the following activator ([2]; clone J326C9): 2-3
Change in 460/530 ratio in the indicated clone by the following activator ([2]; clone J326D4): 10
Change in 460/530 ratio in the indicated clone by the following activator ([2]; clone J326D7): 10
Change in 460/530 ratio in the indicated clone by the following activator ([2]; clone J326F7): 10
Change in 460/530 ratio in the indicated clone by the following activator ([2]; clone J326H4): 10
Change in 460/530 ratio in the indicated clone by the following activator ([2]; clone J389PM2): 3-4
Change in 460/530 ratio in the indicated clone by the following activator ([2]; clone J389PM3): 2-3
Change in 460/530 ratio in the indicated clone by the following activator ([2]; clone J389PM5): 3-4
Change in 460/530 ratio in the indicated clone by the following activator ([2]; clone J389PM7): 1-2
Change in 460/530 ratio in the indicated clone by the following activator ([2]; clone J389PM8): 2-3
Change in 460/530 ratio in the indicated clone by the following activator ([2]; clone J389PT4): 12
Change in 460/530 ratio in the indicated clone by the following activator ([2]; clone J389PTt): 8-9
Change in 460/530 ratio in the indicated clone by the following activator ([2]; clone J389TI1): 1-2
Change in 460/530 ratio in the indicated clone by the following activator ([2]; clone J389TI4): 1-2
